Source: ChEMBL document CHEMBL5291721, “A preclinical secondary pharmacology resource illuminates target-adverse drug reaction associations of marketed drugs” (Nat Commun, 2023)

Assays:
Estrogen receptor = target: T1, Estrogen receptor (Homo sapiens, UniProt P03372)
T1 sequence (P03372 whole entry): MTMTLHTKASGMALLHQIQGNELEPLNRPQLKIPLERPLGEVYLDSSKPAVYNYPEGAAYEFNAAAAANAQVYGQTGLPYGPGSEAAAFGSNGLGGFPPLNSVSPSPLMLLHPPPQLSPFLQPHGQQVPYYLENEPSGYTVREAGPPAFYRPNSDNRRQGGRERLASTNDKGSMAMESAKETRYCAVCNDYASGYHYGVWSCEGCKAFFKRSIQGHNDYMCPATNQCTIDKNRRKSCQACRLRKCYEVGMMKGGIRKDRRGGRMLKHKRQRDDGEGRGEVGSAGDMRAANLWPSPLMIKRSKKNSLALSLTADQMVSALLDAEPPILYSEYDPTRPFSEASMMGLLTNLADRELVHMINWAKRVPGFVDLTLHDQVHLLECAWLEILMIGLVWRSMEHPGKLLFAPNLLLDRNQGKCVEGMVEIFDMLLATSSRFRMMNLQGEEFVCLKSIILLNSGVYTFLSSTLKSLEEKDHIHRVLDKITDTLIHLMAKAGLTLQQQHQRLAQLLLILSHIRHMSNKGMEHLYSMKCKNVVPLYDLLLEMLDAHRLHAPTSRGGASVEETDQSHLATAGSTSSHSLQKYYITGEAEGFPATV

[1] = target: T2, 5-hydroxytryptamine receptor 1A (Homo sapiens, UniProt P08908); assay type: functional, cell-based
T2 sequence (P08908 whole entry): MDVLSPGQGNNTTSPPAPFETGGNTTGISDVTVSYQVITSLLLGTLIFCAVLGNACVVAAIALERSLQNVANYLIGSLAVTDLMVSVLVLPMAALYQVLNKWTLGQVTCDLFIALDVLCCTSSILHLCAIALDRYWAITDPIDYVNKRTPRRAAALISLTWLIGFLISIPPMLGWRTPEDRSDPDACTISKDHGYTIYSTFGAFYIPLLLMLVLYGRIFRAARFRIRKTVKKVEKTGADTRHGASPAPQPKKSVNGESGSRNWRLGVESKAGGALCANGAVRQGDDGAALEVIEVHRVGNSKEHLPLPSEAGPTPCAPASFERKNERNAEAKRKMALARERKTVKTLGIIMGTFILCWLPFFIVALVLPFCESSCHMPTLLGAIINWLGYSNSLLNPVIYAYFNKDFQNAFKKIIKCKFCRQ

[2] = target: T3, Cholecystokinin receptor type A (Homo sapiens, UniProt P32238)
T3 sequence (P32238 whole entry): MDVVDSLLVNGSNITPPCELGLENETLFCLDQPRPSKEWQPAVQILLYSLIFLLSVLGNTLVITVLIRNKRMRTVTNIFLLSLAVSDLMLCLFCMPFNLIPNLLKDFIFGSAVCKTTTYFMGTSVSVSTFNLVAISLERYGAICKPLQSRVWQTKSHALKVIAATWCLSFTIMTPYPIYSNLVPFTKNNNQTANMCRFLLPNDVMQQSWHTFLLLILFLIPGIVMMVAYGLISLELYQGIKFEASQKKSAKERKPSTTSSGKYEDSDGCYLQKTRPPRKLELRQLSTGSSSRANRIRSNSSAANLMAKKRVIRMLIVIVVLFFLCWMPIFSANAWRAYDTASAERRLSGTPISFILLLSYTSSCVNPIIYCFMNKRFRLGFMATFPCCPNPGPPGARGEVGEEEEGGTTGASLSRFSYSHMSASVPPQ

[3] = target: Muscarinic acetylcholine receptor M3 (Homo sapiens, UniProt P20309)
[4] = target: Sodium-dependent noradrenaline transporter (Homo sapiens, UniProt P23975)
[5] = target: T4, Muscarinic acetylcholine receptor M2 (Homo sapiens, UniProt P08172); assay type: functional, cell-based
T4 sequence (P08172 whole entry): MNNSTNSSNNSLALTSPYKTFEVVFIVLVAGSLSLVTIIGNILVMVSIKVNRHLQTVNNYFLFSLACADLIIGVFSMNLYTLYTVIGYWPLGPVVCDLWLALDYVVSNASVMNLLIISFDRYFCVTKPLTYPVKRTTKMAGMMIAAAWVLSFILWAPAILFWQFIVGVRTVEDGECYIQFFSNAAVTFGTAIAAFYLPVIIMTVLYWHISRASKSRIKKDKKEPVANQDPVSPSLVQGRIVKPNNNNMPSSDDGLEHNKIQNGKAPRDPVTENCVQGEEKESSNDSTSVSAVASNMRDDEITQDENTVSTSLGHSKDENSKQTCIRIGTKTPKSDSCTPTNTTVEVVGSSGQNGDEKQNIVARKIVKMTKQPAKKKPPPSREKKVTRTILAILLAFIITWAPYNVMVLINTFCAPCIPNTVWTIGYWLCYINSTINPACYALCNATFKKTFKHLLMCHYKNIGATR

Vasopressin V1a receptor = Vasopressin V1a receptor (Homo sapiens, UniProt P37288)
[6] = target: Delta-type opioid receptor (Homo sapiens, UniProt P41143)
D(3) dopamine receptor = D(3) dopamine receptor (Homo sapiens, UniProt P35462)
D(1A) dopamine receptor = D(1A) dopamine receptor (Homo sapiens, UniProt P21728); assay type: functional, cell-based
[7] = target: T5, Muscarinic acetylcholine receptor M1 (Homo sapiens, UniProt P11229); assay type: functional
T5 sequence (P11229 whole entry): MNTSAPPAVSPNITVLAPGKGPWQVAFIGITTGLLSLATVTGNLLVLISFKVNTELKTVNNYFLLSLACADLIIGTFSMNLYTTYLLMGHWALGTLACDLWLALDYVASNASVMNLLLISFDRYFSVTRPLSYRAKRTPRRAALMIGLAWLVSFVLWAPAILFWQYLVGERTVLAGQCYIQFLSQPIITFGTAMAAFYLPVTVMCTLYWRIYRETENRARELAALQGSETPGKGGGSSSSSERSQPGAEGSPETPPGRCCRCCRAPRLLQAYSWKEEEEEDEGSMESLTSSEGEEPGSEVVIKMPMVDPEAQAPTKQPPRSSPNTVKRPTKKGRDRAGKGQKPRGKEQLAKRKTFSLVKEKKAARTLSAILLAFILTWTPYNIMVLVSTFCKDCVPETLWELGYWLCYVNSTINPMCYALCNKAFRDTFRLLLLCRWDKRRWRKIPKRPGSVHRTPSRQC
Also: assay procedure not described here.

Muscarinic acetylcholine receptor M3, sequence (P20309 whole entry): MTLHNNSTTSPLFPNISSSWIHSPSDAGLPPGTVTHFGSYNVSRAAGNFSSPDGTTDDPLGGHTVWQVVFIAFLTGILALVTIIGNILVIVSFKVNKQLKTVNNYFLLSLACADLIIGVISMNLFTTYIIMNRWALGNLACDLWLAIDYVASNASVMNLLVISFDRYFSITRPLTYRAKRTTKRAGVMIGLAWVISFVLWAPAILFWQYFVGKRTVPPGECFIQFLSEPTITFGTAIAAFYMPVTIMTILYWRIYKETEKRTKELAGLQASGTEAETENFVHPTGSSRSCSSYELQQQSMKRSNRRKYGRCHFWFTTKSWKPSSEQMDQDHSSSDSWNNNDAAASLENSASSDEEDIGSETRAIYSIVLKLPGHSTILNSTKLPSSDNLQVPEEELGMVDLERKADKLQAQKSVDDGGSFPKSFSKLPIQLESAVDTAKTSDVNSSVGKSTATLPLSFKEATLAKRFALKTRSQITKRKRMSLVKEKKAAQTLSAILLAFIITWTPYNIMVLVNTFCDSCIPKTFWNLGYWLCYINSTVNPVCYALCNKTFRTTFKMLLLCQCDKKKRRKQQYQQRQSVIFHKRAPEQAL
Delta-type opioid receptor, sequence (P41143 whole entry): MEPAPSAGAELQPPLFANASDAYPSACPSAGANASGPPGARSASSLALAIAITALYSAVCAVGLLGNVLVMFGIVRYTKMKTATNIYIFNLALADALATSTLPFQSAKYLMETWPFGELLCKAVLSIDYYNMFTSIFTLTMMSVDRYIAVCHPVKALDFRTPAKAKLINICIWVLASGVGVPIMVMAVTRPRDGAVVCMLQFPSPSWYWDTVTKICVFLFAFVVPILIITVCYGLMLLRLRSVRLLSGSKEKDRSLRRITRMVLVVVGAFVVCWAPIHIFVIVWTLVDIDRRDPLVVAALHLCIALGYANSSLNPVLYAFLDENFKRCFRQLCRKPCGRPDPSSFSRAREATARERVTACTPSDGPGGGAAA
D(3) dopamine receptor, sequence (P35462 whole entry): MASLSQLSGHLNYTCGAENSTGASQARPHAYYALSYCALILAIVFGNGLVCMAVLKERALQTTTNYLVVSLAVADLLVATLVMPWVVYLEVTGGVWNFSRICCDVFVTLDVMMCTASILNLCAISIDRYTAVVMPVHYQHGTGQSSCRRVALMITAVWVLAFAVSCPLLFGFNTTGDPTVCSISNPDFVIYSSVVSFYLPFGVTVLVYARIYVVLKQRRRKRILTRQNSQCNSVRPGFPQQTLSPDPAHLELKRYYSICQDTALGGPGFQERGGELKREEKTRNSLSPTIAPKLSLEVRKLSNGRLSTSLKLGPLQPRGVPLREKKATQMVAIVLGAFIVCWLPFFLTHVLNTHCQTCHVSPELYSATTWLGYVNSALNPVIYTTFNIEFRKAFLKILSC
Sodium-dependent noradrenaline transporter, sequence (P23975 whole entry): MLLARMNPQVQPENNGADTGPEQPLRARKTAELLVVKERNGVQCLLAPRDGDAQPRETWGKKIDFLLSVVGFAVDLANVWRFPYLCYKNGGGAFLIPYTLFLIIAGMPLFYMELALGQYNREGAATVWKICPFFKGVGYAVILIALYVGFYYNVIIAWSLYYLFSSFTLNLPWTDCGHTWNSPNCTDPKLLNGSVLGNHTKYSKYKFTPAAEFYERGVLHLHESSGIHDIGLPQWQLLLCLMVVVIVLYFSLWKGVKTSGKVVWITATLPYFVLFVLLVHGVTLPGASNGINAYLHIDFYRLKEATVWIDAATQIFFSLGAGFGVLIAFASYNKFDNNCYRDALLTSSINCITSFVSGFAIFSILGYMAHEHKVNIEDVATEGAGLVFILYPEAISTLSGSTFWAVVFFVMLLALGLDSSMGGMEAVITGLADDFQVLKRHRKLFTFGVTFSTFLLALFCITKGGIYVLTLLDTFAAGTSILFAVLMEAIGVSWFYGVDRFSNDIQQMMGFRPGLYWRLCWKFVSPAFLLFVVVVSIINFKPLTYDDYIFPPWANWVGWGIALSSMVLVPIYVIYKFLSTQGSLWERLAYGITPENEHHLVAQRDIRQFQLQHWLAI
D(1A) dopamine receptor, sequence (P21728 whole entry): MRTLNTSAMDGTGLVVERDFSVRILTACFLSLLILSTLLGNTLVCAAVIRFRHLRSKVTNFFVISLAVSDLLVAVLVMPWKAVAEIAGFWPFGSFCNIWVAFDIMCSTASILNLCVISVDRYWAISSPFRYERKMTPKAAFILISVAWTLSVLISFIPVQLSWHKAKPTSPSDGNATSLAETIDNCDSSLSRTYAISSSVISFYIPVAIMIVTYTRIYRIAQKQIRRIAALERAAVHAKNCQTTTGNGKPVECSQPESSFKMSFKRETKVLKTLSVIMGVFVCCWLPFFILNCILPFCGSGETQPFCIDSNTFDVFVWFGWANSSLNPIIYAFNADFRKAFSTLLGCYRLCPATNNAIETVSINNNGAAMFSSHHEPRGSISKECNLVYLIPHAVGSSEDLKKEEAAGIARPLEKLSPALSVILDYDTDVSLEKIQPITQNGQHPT
Vasopressin V1a receptor, sequence (P37288 whole entry): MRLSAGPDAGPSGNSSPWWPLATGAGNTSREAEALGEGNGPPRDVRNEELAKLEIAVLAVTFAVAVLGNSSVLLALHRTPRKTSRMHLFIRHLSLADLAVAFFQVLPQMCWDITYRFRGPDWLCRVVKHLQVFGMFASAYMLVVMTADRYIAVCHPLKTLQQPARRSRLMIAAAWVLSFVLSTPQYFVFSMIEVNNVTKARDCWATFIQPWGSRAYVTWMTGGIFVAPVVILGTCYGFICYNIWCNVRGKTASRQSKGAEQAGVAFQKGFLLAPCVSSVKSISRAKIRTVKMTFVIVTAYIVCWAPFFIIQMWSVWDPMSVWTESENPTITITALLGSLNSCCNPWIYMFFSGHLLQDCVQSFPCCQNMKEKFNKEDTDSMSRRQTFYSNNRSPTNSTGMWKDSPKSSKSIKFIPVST

AC50 (Estrogen receptor): > 30 µM
AC50 [1]: > 30 µM
AC50 [2]: > 30 µM
AC50 [3]: > 30 µM
AC50 [4]: > 30 µM
AC50 [5]: > 30 µM
AC50 (Vasopressin V1a receptor): > 30 µM
AC50 [6]: > 30 µM
AC50 (D(3) dopamine receptor): > 30 µM
AC50 (D(1A) dopamine receptor): > 30 µM
AC50 [7]: > 30 µM
SMILES: CC1=C(C)C(=O)C(C(CCCCCC(=O)O)c2ccccc2)=C(C)C1=O (stereo unspecified) [SERATRODAST]
